Data published in patent publication EP0955376A1, “ANTIBIOTIC TKR 459, PRODUCTION METHOD, AND MICROORGANISM” (Takara Shuzo Co, Ltd., priority 1996, dated 1998).
Converted amounts (≈) assume the structure as drawn. Like-named read-outs stand apart in the source and are kept apart here.

Legend:
[1] = tested on: Candida albicans TIMM0136; assay: Antimicrobial spectrum, liquid medium dilution method; assay type: cell-based; details: medium YNBG, minimal concentration causing substantially complete inhibition of growth, read-out: Minimal inhibitory concentration
Experimental: (§1) The TKR459 obtained was used to determine antimicrobial spectra against various microorganisms. The minimal inhibitory concentration (µg/ml) was measured by the liquid medium dilution method as the minimal concentration causing a substantially complete inhibition of micobial growth. The sub-minimal inhibitory concentration (µg/ml) was determined as the minimal concentration causing a partial inhibition of micobial growth and shown in the parentheses of Table 2. In the table, YNBG stands for a medium comprising 0.67% of yeast nitrogen base (manufactured by Difco) and 1.0% of glucose.

Candida kefyr TIMM0301 = assay: as above; assay type: cell-based; details: Kluyveromyces marxianus, medium YNBG
Experimental: as §1

[2] = tested on: Cryptococcus neoformans TIMM0354; assay: as above; assay type: cell-based; details: medium YNBG, minimal concentration causing substantially complete inhibition of growth, read-out: Minimal inhibitory concentration
Experimental: as §1

ICR mice = assay: Toxicity after intraperitoneal administration to mice; assay type: in vivo; details: dose 100 mg/kg
Solubility in solvents = assay type: physicochemical

CC1(CCC(=O)O)CCCCCCCCCCCCCC(O)C(O)C(O)C(N)C(O)O1 (stereo not drawn) [TKR459] showed an MIC [1] of 0.78 µg/mL (≈ 1.74 µM), an MIC (Candida kefyr TIMM0301; minimal concentration causing substantially complete inhibition of growth, read-out: Minimal inhibitory concentration) of 0.78 µg/mL (≈ 1.74 µM) and an MIC (Candida kefyr TIMM0301; value in parentheses, minimal concentration causing partial inhibition of growth, read-out: sub-minimal inhibitory concentration) of 0.39 µg/mL (≈ 0.871 µM). For the same compound, the MIC [2] was 3.13 µg/mL (≈ 6.99 µM), the toxic signs (ICR mice) was “no toxic signs” and the solubility (Solubility in solvents; in chloroform) was “sparingly soluble”. The solubility (Solubility in solvents; in hexane) was “sparingly soluble”, the solubility (Solubility in solvents; in methanol) was “soluble” and the solubility (Solubility in solvents; in water) was “soluble”.
